Source: patent US8148378B2, “Pyridazine derivatives and their use as inhibitors of stearoyl-CoA desaturase-1 activity in a mammal” (Xenon Pharmaceuticals Inc., priority 2003, dated 2012)
Like-named read-outs stand apart in the source and are kept apart here.

How the values were obtained:
[1] = biological target: T1, Stearoyl-CoA Desaturase (SCD) (Mus musculus, UniProt P13516); test: Stearoyl-CoA desaturase inhibition using mouse liver microsomes; type: biochemical; settings: for Residual Activity (% remaining, 1 μM): % SCD enzyme activity remaining at 1 μM test compound; for Residual Activity (% remaining, 10 μM): % SCD enzyme activity remaining at 10 μM test compound
T1 construct: from tissue; host or cells: liver microsomes of male ICR mice on a high-carbohydrate, low fat diet
T1 sequence (P13516 1-355): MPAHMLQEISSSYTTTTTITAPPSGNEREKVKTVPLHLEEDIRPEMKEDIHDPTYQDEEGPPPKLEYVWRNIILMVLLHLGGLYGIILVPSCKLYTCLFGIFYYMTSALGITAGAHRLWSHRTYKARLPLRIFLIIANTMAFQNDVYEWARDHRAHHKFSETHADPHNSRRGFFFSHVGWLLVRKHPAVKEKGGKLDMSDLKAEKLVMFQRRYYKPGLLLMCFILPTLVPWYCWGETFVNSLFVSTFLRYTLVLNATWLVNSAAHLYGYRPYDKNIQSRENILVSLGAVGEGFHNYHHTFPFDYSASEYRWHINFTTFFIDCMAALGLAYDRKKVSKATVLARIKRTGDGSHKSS
Experimental: Preparation of Mouse Liver Microsomes:
The absence of mitochondrial contamination is enzymatically assessed.
Incubation of Mouse Liver Microsomes with Test Compounds: […]

SCD = biological target: T2, SCD (Homo sapiens, UniProt O00767); test: Cell IC50 of SCD inhibitors (Table 1, no method given); type: cell-based; settings: cell assay, cell type not stated
T2 sequence (O00767 1-359): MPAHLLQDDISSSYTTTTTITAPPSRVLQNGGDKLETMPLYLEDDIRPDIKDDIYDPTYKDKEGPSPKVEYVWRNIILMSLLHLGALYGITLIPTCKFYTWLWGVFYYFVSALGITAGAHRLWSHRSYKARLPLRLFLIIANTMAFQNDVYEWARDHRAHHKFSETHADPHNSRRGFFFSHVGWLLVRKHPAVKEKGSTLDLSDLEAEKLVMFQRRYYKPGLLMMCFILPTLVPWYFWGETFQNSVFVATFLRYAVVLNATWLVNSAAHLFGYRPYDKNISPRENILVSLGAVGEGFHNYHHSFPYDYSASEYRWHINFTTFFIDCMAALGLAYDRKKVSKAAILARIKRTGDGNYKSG

[2] = projected from residual activity at 1 and 10 μM, read-out: Projected IC50
[3] = microsomal assay, read-out: Microsome IC50

Residual Activity (% remaining, 1 μM) [1] [% remaining] | Residual Activity (% remaining, 10 μM) [1] [% remaining] | IC50 [1, 2] [µM] | IC50 (SCD) [µM] | IC50 [1, 3] [µM] | Compound
86.210 | 57.955 | 10 to 50 |  |  | CN(CCc1ccccc1)c1ccc(N2CCN(C(=O)c3ccccc3C(F)(F)F)CC2)nn1 [Example 1, {4-[6-(METHYLPHENETHYLAMINO)PYRIDAZIN-3-YL]PIPERAZIN-1-YL}-(2-TRIFLUOROMETHYLPHENYL)METHANONE]
91.144 | 55.946 | 10 to 50 |  |  | O=C(c1ccccc1C(F)(F)F)N1CCN(c2ccc(NCCc3ccccc3)nn2)CC1 [Example 1.1, [4-(6-PHENETHYLAMINOPYRIDAZIN-3-YL)PIPERAZIN-1-YL]-(2-TRIFLUOROMETHYLPHENYL)METHANONE]
 |  |  | 10.5 | 6.25 | CCCS(=O)(=O)Nc1ccc(N2CCN(C(=O)c3ccccc3C(F)(F)F)CC2)nn1 [Example 2, PROPANE-1-SULFONIC ACID {6-[4-(2-TRIFLUOROMETHYLBENZOYL)PIPERAZIN-1-YL]PYRIDAZIN-3-YL}AMIDE]
 |  |  | 0.111 | 0.067 | O=C(c1ccccc1C(F)(F)F)N1CCN(c2ccc(S(=O)(=O)CCc3ccccc3)nn2)CC1 [Example 3, {4-[6-(2-PHENYLETHANESULFONYL)PYRIDAZIN-3-YL]PIPERAZIN-1-YL}-(2-TRIFLUOROMETHYL-PHENYL)METHANONE]
 |  |  | 0.175 | 0.067 | O=C(c1ccccc1C(F)(F)F)N1CCN(c2ccc([S+]([O-])CCc3ccccc3)nn2)CC1 (stereo not drawn) [Example 4]
 |  |  | 4.3 | 4.55 | O=C(c1ccccc1C(F)(F)F)N1CCN(c2ccc(OCCc3ccccc3)nn2)CC1 [Example 5, [4-(6-PHENETHYLOXYPYRIDAZIN-3-YL)PIPERAZIN-1-YL]-(2-TRIFLUOROMETHYL-PHENYL)METHANONE]
53.875 | 29.330 | 1 to 10 |  |  | O=C(c1ccccc1C(F)(F)F)N1CCN(c2ccc(OCCC3CC3)nn2)CC1 [Example 5.1, {4-[6-(2-CYCLOPROPYLETHOXY)PYRIDAZIN-3-YL]PIPERAZIN-1-YL}-(2-TRIFLUOROMETHYLPHENYL)METHANONE]
 |  |  | 0.033 | 0.06 | O=C(c1ccccc1C(F)(F)F)N1CCN(c2ccc(SCCc3ccccc3)nn2)CC1 [Example 6, [4-(6-PHENETHYLSULFANYLPYRIDAZIN-3-YL)PIPERAZIN-1-YL](2-TRIFLUOROMETHYLPHENYL)METHANONE]
 |  |  | 0.849 | 0.447 | CC(C)CCSc1ccc(N2CCN(C(=O)c3ccccc3C(F)(F)F)CC2)nn1 [Example 6.1, {4-[6-(3-METHYLBUTYLSULFANYL)PYRIDAZIN-3-YL]PIPERAZIN-1-YL}-(2-TRIFLUOROMETHYL-PHENYL)METHANONE]
